Key:
MMP-2 = molecular target: T1, MMP-2 (Rattus norvegicus, UniProt P33436); test: In-gel gelatin zymography of SHR heart, MMP-2; assay type: in vivo, SHR rats; details: SalA i.p. everyday for 4 weeks
T1 construct: twenty µg protein from tissue; from tissue; host or cells: heart of spontaneously hypertensive rats (SHR)
T1 sequence (P33436 110-662): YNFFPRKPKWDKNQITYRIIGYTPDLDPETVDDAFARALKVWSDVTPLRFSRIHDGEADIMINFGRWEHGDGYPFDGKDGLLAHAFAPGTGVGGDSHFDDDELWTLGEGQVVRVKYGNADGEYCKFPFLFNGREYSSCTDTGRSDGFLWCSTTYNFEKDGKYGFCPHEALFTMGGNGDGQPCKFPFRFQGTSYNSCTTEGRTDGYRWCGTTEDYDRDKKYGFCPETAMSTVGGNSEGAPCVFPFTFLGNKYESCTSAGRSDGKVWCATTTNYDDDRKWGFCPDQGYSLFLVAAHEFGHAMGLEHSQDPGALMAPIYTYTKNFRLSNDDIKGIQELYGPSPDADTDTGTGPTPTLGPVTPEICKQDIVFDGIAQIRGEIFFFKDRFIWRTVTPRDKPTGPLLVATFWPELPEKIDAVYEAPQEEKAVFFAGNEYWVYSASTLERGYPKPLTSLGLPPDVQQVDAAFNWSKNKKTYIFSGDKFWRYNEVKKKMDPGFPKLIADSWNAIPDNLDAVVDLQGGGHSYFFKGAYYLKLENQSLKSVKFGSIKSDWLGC

[1] = system: H9c2 cells overexpressing MMP-9 (pDEST-MMP9); test: Transwell migration of H9c2 cells overexpressing MMP-9; assay type: cell-based, Rat; details: pDEST-MMP9 untreated 157.4±10.2, pDEST 74.6±8.9
Protocol: Transwell assay was employed to evaluate effects of SalA on neonatal cardiac fibroblast migration induced by MMP-9 CD. Twenty thousand cells in 200 µL culture medium containing various concentrations of SalA were loaded onto PET track-etched membrane in modified Boyden chambers (BD Falcon Cell Culture Insert, BD), and same medium containing MMP-9 CD (200 nmol/L) was added to the lower side of the migration chamber. After incubating for 24 h, migrated cells (in the lower side of migration chamber) were stained with 0.1% crystal violet and counted with a microscope at 200 X magnification. Five to six view fields were counted on each membrane. Migration is expressed as the mean value of total number of migrated cells per field. DNA cloning using Gateway technology was carried out according to manufacturer’s instructions. Full-length MMP-9 cDNA (MGC-12688) was first subcloned into entry vector pDONR^TM221, followed by recombination reaction between the attL-containing pDONR^TM221 vector and attR-containing destination pDEST vector (Invitrogen, Carlsbad, CA, USA). […] Stable H9c2 cell line was generated by selection with 2 mg/mL G418 (denoted as pDEST-MMP9) and maintained in 0.75 mg/mL G418, and expression of MMP-9 was evaluated using zymography assay. […]

[2] = system: neonatal cardiac fibroblast; test: Soluble collagen secretion (picrosirius red assay); assay type: cell-based, Wistar rats; details: 24 h, p<0.05
Protocol: Primary cardiac fibroblast was obtained from neonatal rats and National Institutes of Health (NIH) Guide for the Care and Use of Laboratory Animals was followed throughout. Wistar rats (2–4 day old) were sacrificed by cervical dislocation; ventricles were minced and digested with 0.1% trypsin at 37°C for 8 min. The liberated cells were collected by centrifugations; non-digested chunk materials were further digested in 0.1% trypsin for an additional 8 min. This digestion procedure was repeated 3–4 times. All the liberated cells were pelleted by centrifugation at 1,000 rpm for 10 min, re-suspended in DMEM containing 10% fetal bovine serum (FBS), and cultured in a 100-mm noncoated culture flask at 37°C with 5% CO2 for 2 h. Adherent cardiac fibroblasts were collected and maintained in DMEM supplemented with 10% FBS, 100 U/mL penicillin, 100 µg/mL streptomycin [12]. Cardiac fibroblasts were treated by vehicle (Con); 200 nmol/L MMP-9 CD (MMP-9); 200 nmol/L MMP-9 CD plus 1 µmol/L SalA [MMP-9/SalA(1)]; or 200 nmol/L MMP-9 CD plus 10 µmol/L SalA [MMP-9/SalA(10)] for the following research. […]
Soluble collagen secreted by neonatal cardiac fibroblast was measured using picrosirius red assay with minor modification, [15]. […] 200 µL solution was transferred to 96 well plate for measuring absorbance at 595 nm using a UV spectrophotometer (Tecan GENios, Austria).

[3] = system: neonatal cardiac fibroblast; test: CCK-8 proliferation of neonatal cardiac fibroblast; assay type: cell-based, Wistar rats; details: 10 µmol/L SalA with MMP-9 CD, 24 h
Protocol: Primary cardiac fibroblast was obtained from neonatal rats and National Institutes of Health (NIH) Guide for the Care and Use of Laboratory Animals was followed throughout. Wistar rats (2–4 day old) were sacrificed by cervical dislocation; ventricles were minced and digested with 0.1% trypsin at 37°C for 8 min. The liberated cells were collected by centrifugations; non-digested chunk materials were further digested in 0.1% trypsin for an additional 8 min. This digestion procedure was repeated 3–4 times. All the liberated cells were pelleted by centrifugation at 1,000 rpm for 10 min, re-suspended in DMEM containing 10% fetal bovine serum (FBS), and cultured in a 100-mm noncoated culture flask at 37°C with 5% CO2 for 2 h. Adherent cardiac fibroblasts were collected and maintained in DMEM supplemented with 10% FBS, 100 U/mL penicillin, 100 µg/mL streptomycin [12]. Cardiac fibroblasts were treated by vehicle (Con); 200 nmol/L MMP-9 CD (MMP-9); 200 nmol/L MMP-9 CD plus 1 µmol/L SalA [MMP-9/SalA(1)]; or 200 nmol/L MMP-9 CD plus 10 µmol/L SalA [MMP-9/SalA(10)] for the following research. All the detections were conducted after 24 h treatment.
Cell proliferation assay was performed using Cell Counting Kit (CCK-8 kit, Dojindo Laboratory, Japan) as described previously. Absorbance was detected at 450 nm (reference 650 nm) using a microplate reader (Tecan GENios, Austria).

## O=C(/C=C/c1ccc(O)c(O)c1/C=C/c1ccc(O)c(O)c1)O[C@H](Cc1ccc(O)c(O)c1)C(=O)O [SalA, salvianolic acid A]
MMP-2
  MMP-2 activity in heart of SHRs: no regulation
[1]; 1 µmol/L SalA
  migrated cells: 84.4±17.0 cells per field
[1]; 10 µmol/L SalA
  migrated cells: 42.3±8.9 cells per field
[2]; 1 µmol/L SalA
  net collagen production in the presence of MMP-9 CD: significantly attenuated
[2]; 10 µmol/L SalA
  net collagen production in the presence of MMP-9 CD: significantly attenuated
[3]
  proliferation of neonatal cardiac fibroblast: considerable promotion

Reference: publication PMC3606118, “Salvianolic Acid A, a Novel Matrix Metalloproteinase-9 Inhibitor, Prevents Cardiac Remodeling in Spontaneously Hypertensive Rats” (PLoS ONE, 2013)
